{
  "source": "patent US8541649B2",
  "about": "“Brassinosteroid regulated kinases (BRKs) that mediate brassinosteroid signal transduction and uses thereof” (priority 2008, dated 2013)",
  "key": {"BRI1-GFP and BRK1-myc": {"biological_target": "T1, BRI1-GFP and BRK1-myc (Arabidopsis thaliana, UniProt O22476)", "T1 construct": "expressed in transfected cells; host or cells: transgenic Arabidopsis plants (rosette leaves, microsomal fraction)", "T1 sequence (O22476 24-1196)": "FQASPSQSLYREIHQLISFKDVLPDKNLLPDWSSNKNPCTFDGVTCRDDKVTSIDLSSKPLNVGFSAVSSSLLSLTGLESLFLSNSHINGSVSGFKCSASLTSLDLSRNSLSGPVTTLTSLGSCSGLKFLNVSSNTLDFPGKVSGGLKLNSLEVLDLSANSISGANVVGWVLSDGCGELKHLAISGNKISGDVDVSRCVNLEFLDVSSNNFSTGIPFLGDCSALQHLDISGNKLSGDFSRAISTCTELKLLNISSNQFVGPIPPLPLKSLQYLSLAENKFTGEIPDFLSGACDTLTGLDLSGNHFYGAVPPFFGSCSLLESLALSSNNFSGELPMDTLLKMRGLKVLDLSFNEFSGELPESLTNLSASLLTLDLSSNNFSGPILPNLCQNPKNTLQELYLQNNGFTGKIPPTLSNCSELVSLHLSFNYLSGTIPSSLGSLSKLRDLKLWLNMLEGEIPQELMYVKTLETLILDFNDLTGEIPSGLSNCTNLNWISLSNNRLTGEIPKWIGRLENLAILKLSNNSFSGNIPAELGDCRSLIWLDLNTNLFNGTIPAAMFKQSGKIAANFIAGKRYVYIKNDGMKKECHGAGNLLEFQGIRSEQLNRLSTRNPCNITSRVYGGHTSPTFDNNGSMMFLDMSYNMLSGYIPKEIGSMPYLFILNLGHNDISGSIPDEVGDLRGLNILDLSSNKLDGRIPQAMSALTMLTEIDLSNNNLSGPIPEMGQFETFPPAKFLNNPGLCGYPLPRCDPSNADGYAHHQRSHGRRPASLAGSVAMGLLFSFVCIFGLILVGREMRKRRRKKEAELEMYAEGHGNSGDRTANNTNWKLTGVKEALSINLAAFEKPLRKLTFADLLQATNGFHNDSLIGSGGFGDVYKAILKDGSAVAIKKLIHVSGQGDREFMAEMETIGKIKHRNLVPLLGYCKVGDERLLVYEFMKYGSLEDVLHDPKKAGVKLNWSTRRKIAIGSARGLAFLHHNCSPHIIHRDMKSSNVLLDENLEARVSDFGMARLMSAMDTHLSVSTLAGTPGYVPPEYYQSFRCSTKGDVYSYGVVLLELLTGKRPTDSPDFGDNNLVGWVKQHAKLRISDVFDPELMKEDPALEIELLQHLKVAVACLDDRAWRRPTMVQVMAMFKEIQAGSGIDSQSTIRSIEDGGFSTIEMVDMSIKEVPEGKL", "T1 sequence (Q94F62 26-615 partner)": "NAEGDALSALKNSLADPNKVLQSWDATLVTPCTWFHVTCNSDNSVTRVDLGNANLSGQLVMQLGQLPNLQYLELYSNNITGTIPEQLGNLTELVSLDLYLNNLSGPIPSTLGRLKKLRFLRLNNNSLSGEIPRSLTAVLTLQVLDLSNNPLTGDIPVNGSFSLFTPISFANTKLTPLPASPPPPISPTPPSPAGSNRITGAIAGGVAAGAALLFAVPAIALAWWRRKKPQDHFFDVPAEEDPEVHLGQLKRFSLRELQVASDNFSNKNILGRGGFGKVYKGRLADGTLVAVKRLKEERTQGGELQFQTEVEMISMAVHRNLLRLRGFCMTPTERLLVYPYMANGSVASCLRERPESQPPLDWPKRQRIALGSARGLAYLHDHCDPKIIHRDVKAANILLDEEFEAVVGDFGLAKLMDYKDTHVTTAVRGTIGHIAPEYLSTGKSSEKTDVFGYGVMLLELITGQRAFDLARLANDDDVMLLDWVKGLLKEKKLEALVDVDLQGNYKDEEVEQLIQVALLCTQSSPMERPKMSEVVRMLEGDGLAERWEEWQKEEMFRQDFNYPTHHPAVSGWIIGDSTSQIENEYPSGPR", "test": "Co-immunoprecipitation of BRI1 with BRK1", "assay_type": "in vivo", "conditions": "100 nM brassinolide for 30 min; microsomal proteins immunoprecipitated with anti-GFP antibodies; plants co-expressing BRK1-myc and BRI1-GFP (FIG. 2D)", "protocol": "FIGS. 2A-2D show BRK1 is a substrate of BRI1. FIGS. 2A and 2B show BRI1 phosphorylates serine230 of BRK1 in vitro. […] YFP fluorescence images of N. benthamiana leaf epidermal cells co-transformed with the indicated constructs. […] Arabidopsis plants expressing BRK1-myc only (lanes 1 and 4) or co-expressing BRK1-myc and BRI1-GFP (lanes 2, 3, 5, 6) were treated with 100 nM brassinolide (BL+) or mock solution (BL−) for 30 min. Microsomal proteins (lanes 1 to 3) were immunprecipitated with anti-GFP antibodies (lanes 4 to 6), and the immunoblot was probed using anti-GFP antibodies or anti-myc antibodies.\nAll procedures were performed at 4° C. Rosette leaves of 3-week-old Arabidopsis plants were homogenized with mortar and pestle in the grinding buffer (20 mM HEPES, pH 7.5, 40 mM KCl, 250 mM sucrose, 5 mM MgCl2 and protein inhibitors) at a ratio of 3 mL buffer per gram of tissue. Homogenate was filtered through 2 layers of Miracloth (CalBiochem, La Jolla, Calif.), and centrifuged at 10,000 g for 10 minutes. The supernatant was further centrifuged at 100,000 g for 60 min to pellet the microsomal fraction. Microsomes were re-suspended in 0.5 mL grinding buffer and sonicated for 10 sec. Triton X-100 was added to a final concentration of 1%. After mixing, the extracts were centrifuged at 20,000 g for 10 min. […] Samples were analyzed by SDS-PAGE and immunoblotting."}, "wild type plants": {"tested_on": "wild type plants", "test": "Hypocotyl and root growth assay", "assay_type": "in vivo, Arabidopsis thaliana", "conditions": "wild type plants grown in the light", "protocol": "The det2-1 and bzr1-1D mutants are in Arabidopsis thaliana Columbia ecotype background, and bri1-5 is in the WS ecotype. For hypocotyl and root growth assay, seedlings were grown on vertical phytoagar plate containing ^1/2 MS medium and 1% sucrose (pH 5.7) in the dark for 4 days or under continuous light for 7 days. Confocal microscopy and BiFC analysis were performed according to Gampala et al. (Gampala et al., Dev Cell 13, 177 (August, 2007)).\nArabidopsis seeds were surface sterilized by first soaking in 70% ethanol plus 0.1% Triton X-100 for 15 min followed by soaking in 96% ethanol for another 10 mins. Sterilized seeds were air dried in the hood and sowed on agar plate of Murashige and Skoog (MS) medium or MS plate plus BRZ or Brassinolide. The seeds were incubated at 4° C. for 3 days to synchronize germination and then grown for 4 days in dark or 7 days under continuous light before taking pictures for measurement. For measurement of hypocotyls or root growth, the plates were first scanned using a image scanner at a resolution of 300 dpi, and the images were input into computer software Image J to measure the root or hypocotyl length."}},
  "data": [
    {"molecule": "CC(C)[C@H](C)[C@@H](O)[C@H](O)[C@@H](C)[C@H]1CC[C@H]2[C@@H]3COC(=O)[C@H]4C[C@H](O)[C@H](O)C[C@]4(C)[C@H]3CC[C@]12C", "note": "[Brassinolide]", "values": [
      {"measurement": "amount of the co-immunoprecipitated BRK1-myc", "setting": "BRI1-GFP and BRK1-myc", "result": "46 % of the untreated sample"},
      {"measurement": "hypocotyl elongation", "setting": "wild type plants", "result": "increases hypocotyl elongation"},
      {"measurement": "root growth", "setting": "wild type plants", "result": "inhibits root growth"}
    ]}
  ]
}
